Biological target: T1, RNase A (Bos taurus, UniProt P61823)
T1 sequence (P61823 27-150): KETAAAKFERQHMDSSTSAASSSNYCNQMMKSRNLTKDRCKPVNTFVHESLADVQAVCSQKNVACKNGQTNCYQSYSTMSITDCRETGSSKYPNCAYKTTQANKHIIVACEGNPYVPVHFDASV
Experiment: Fluorometric detection nuclease assay, RNase A
Format: biochemical, mammalian
Conditions: Substrate 50 nM
Method: Nuclease assays were conducted using the method of the invention. SEQ ID NO:2 and SEQ ID NO:3 oligonucleotides were individually mixed in 1× Assay Buffer at a concentration of 50 nM (150 pmoles oligonucleotide in 3 mls volume). […] Assays were set up directly in cuvettes as follows:
Assay Mixes were incubated at 37° C. for 1 hour. Fluorescence emission spectra were measured using a PTI fluorometer with 490 nm excitation. Substrate SEQ ID NO:2 (having chimeric RNA-DNA composition) reacted with both DNase I (undesired) and RNase A (desired).
Nuclease assays were conducted using the method of the invention. The Substrate (SEQ ID NO:30) was mixed in 1× Assay Buffer at a concentration of 50 nM (150 pmoles oligonucleotide in 3 mls volume). Test nucleases were added to respective Assay Mixes, including 1 ul of RNase A (1 ug), 1 ul of RNase 1 (100 units), or 1 ul of RNase T1 (1000 units). […] Assays were set up directly in cuvettes as follows:
Assay Mixes were incubated at 37° C. for 1 hour. Assays were transferred to cuvettes and fluorescence emission at 520 nm was measured using a PTI fluorometer with 490 nm excitation. Substrate SEQ ID NO:30, a preferred Substrate of the invention, reacted with (i.e., detected) all three RNase enzymes, verifying that Substrate compositions of the invention are sensitive to a variety of RNase enzymes.
Substrate SEQ ID NO:30 was mixed in 1× Assay Buffer at a concentration of 50 nM (150 pmoles oligonucleotide in 3 mls volume). RNase A was added at final concentrations of 10 ng/ml, 2 ng/ml, 1 ng/ml, and 0.4 ng/ml. […] Assay mixes were incubated at 37° C. in a cuvette directly in a PTI fluorometer. Fluorescence emission at 520 nm with 490 nm excitation was measured over time. At high nuclease concentrations, the reaction goes rapidly to completion. At lower nuclease concentrations, the reaction rate decreases but with longer incubation times an easily detectable signal is generated. Substrate concentration is fixed and input enzyme (i.e., the test sample) varies. Since the background is stable (monitored in the control reaction), use of extended incubation periods will increase the sensitivity of the assay.
Assays were conducted using the method of the invention with fluorometric detection. Substrate SEQ ID NO:30 was mixed in 1× Assay Buffer at a concentration of 50 nM (50 pmoles ODN in 1.0 ml volume) in RNase-free disposable cuvettes. […] Dilutions of stock RNase A, RNase 1, and RNase T1 were made in water. Undiluted and diluted nuclease (1 ul) was added to respective 1.0 ml Assay Mixes resulting in final dilution factors of 10^−3, 10^−4, 10^−5, 10^−6, 10^−7, 10^−8, and 10^−9. Assays were incubated at 37° C. for 1 hour and examined for fluorescence emission at 520 nm using 490 nm excitation in a PTI fluorometer. Final enzyme concentration reported notes the lowest concentration tested that was reproducibly positive with a signal:noise ratio of at least 2:1.

Substance: 5′ Fluorescein-AauggcA-QSY-7 3′ (NAAUGGCAN; 5' fluorescein and 3' QSY-7 labels, nucleotide chemistry not given here) [SEQ ID NO:30]
- Reactivity with RNase A (fluorometer) (RNase A 0.33 ug/ml, 37° C. 1 hour, 490 nm excitation): reacted
- Assay background (hydrolysis of the Substrate) over time (control reaction without ribonuclease, 1× Assay Buffer, 37° C.): stable
- Enzyme Concentration, lowest tested reproducibly positive with signal:noise at least 2:1, RNase A (fluorometric detection, 37° C. 1 hour, dilution factor 10^−8): 10 pg/mL

From patent publication US7276337B2, “Compositions and methods for visual ribonuclease detection assays” (Integrated DNA Technologies, Inc., priority 2000, dated 2007)
